“And” between values parts separate entries of the source, which are not always exact repeats. Identical values can stand only once. Like-named read-outs stand apart in the source and are kept apart here.
Assays:
[1] = test system: human chronic myeloid leukemia cell line K562; assay: CCK-8 in vitro proliferation inhibition; assay type: cell-based; conditions: read-out: Inhibitory activity (IC50) on cell proliferation, K562
Method: (§1) Cell lines: human chronic myeloid leukemia cell line K562, human acute myeloid leukemia cell line U937, human T lymphocyte leukemia cell line HuT78, and human T lymphoblastic lymphoma cell line Jurkat. Cells were purchased from the Chinese Academy of Sciences Stem Cell Bank or ATCC.
(§2) […] were cultured overnight and suspended cells were directly stimulated with drugs. […] Two repeats were set for each concentration, with a final volume of 200 μL. […] The absorbance values at 450 nm and 650 nm were measured using a microplate reader, and the increment Z (A450-A650) was derived. The inhibitory rate of drugs on cell growth was calculated by GraphPad Prism 8.0.0 through the following formula:
(§3) Inhibition rate (%)(ODcontrol−ODdosing)/ODcontrol×100%
(§4) The half inhibitory concentration (IC50) was calculated. Every experiment was repeated at least three times.

[2] = test system: human acute myeloid leukemia cell line U937; assay: CCK-8 in vitro proliferation inhibition; assay type: cell-based; conditions: read-out: Inhibitory activity (IC50) on cell proliferation, U937
Method: as §1, §2, §3, §4

JAK1 = JAK1 (Homo sapiens (Human), UniProt P23458); assay: Z′-Lyte kinase inhibitory activity test; assay type: biochemical; conditions: ATP concentration Km
JAK1, sequence (P23458 whole entry): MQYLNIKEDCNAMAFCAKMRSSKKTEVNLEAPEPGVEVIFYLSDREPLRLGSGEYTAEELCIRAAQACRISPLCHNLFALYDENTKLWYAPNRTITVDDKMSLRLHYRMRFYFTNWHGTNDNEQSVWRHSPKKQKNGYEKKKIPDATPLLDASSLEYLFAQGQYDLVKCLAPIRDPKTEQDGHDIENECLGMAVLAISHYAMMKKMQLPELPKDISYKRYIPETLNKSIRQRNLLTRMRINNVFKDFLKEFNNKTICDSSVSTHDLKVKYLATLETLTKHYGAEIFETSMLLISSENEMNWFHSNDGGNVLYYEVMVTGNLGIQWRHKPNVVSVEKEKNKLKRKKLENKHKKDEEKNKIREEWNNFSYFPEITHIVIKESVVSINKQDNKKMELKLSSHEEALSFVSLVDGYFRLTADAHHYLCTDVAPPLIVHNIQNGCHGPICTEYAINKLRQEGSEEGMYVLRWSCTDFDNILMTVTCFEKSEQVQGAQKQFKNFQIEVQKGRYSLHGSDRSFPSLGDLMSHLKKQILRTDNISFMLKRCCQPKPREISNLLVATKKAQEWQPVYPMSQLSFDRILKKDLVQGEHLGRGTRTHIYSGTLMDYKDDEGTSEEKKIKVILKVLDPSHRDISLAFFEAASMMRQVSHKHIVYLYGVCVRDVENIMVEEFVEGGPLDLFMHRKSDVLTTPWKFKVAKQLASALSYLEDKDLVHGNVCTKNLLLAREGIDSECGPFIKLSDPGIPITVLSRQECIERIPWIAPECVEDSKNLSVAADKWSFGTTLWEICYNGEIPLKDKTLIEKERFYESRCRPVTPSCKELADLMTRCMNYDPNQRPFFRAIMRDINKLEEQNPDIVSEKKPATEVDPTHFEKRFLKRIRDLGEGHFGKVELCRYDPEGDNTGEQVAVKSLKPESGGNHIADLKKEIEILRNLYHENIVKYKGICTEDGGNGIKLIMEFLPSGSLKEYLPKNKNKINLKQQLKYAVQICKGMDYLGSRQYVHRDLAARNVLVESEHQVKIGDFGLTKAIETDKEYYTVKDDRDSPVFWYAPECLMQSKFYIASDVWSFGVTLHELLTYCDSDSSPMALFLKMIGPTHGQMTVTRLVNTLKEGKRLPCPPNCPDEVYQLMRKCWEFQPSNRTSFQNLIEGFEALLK
Method: (§5) Test method: Firstly, test compounds were prepared into 10 mM stock solution with DMSO, and continuously diluted into 10 concentrations at a 3-fold gradient for later use. 5X reaction buffer was diluted with deionized water into 1×reaction buffer (50 mM HEPES pH 7.5, 0.01% Brij-35, 10 mM MgCl2, 1 mM EGTA), which was used to prepare a mixture of kinase and peptide substrate, as well as a phosphorylated peptide substrate solution. The kinase concentration was determined based on enzyme titration, and the final concentration of peptide substrate and phosphorylated peptide substrate was 2 μM. 5 μL of mixture substrate of kinase and peptide substrate was added to each well on the 384 well plate. Then 5 nL of the test compound (starting with a final concentration of 10 μM) was added with an Echo520 Sampler. […] An additional 100% phosphorylation well (5 μL phosphorylated peptide substrate solution), a 0% phosphorylated well (5 μL of a mixture of kinase and peptide substrate, without test compounds and ATP), and a 0% inhibitory well (5 μL of a mixture of kinase and peptide substrate and appropriate concentration of ATP) were set as control. Two repeats were set for each concentration. The above reaction system was incubated at 30° C. for 1.5 hours. […] 2.5 μL of the diluted mixture was added to each well and the system was incubated at 30° C. for another 1 hour. […] The substrate phosphorylation rate was obtained by calculating the ratio, and the activity of the kinase and the effect of the inhibitor on the kinase was further calculated. Every experiment was repeated at least three times.

JAK2 = JAK2 (Homo sapiens (Human), UniProt O60674); assay: Z′-Lyte kinase inhibitory activity test; assay type: biochemical
JAK2, sequence (O60674 whole entry): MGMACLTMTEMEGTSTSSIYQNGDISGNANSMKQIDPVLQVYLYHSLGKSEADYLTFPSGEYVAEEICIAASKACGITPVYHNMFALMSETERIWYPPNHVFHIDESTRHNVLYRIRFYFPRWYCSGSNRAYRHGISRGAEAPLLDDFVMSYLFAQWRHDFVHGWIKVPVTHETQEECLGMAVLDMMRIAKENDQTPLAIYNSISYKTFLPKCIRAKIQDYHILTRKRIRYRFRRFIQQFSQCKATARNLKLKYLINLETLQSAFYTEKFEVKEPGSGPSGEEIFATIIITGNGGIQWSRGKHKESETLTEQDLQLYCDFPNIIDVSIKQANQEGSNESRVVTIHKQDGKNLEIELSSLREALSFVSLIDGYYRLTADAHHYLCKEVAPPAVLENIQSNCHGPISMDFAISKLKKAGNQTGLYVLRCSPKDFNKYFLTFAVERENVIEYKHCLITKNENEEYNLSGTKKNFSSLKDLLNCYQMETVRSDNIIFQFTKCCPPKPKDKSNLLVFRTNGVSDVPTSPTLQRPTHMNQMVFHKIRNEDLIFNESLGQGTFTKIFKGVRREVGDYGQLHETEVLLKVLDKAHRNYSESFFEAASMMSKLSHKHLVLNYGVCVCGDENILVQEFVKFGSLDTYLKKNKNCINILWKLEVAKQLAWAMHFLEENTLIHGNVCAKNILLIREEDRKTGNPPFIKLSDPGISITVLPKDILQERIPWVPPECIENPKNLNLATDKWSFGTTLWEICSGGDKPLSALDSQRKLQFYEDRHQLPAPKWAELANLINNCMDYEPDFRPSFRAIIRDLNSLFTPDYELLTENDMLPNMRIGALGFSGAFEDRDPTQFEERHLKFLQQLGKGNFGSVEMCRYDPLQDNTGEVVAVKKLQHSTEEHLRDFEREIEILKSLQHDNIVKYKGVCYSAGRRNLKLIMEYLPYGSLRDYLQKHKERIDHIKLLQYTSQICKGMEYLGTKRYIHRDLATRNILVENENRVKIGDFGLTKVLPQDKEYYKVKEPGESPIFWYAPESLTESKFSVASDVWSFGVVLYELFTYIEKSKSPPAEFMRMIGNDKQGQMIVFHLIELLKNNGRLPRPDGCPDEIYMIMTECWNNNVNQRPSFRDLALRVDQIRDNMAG
Method: as §5

JAK3 = JAK3 (Homo sapiens (Human), UniProt P52333); assay: Z′-Lyte kinase inhibitory activity test; assay type: biochemical; conditions: for JAK3 kinase inhibitory activity and selectivity (in words): summary of Table 3, activity maintained at ATP 1 mM
JAK3, sequence (P52333 whole entry): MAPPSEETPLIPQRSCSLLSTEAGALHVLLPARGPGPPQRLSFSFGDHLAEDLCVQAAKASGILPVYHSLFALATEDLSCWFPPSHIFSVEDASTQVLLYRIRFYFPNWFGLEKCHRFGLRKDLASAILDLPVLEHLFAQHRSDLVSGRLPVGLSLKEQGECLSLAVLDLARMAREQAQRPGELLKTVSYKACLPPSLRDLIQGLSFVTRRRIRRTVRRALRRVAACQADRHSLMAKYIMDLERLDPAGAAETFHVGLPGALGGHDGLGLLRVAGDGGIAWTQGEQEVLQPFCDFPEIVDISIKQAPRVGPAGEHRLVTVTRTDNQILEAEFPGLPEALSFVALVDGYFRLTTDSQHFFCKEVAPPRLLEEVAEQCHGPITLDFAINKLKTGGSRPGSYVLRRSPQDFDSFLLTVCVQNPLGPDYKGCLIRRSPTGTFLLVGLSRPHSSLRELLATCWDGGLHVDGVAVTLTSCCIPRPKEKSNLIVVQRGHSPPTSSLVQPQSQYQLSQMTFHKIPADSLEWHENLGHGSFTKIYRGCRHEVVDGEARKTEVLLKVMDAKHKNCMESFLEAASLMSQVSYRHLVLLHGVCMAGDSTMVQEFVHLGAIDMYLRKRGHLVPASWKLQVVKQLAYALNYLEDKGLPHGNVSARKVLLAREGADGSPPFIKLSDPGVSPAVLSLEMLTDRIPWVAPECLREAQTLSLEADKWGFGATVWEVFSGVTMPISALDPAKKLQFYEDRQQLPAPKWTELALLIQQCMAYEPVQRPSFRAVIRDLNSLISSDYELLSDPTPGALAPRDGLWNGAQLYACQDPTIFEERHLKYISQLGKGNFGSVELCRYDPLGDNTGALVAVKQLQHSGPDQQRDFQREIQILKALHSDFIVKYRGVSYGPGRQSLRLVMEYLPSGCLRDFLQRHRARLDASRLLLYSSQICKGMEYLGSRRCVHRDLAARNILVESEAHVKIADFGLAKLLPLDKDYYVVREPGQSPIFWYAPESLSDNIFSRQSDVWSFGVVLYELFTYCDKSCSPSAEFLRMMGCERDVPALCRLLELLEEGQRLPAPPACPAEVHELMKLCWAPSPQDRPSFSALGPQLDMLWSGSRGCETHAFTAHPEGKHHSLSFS
Method: as §5

TYK2 = TYK2 (Homo sapiens (Human), UniProt P29597); assay: Z′-Lyte kinase inhibitory activity test; assay type: biochemical; conditions: ATP concentration Km
TYK2, sequence (P29597 whole entry): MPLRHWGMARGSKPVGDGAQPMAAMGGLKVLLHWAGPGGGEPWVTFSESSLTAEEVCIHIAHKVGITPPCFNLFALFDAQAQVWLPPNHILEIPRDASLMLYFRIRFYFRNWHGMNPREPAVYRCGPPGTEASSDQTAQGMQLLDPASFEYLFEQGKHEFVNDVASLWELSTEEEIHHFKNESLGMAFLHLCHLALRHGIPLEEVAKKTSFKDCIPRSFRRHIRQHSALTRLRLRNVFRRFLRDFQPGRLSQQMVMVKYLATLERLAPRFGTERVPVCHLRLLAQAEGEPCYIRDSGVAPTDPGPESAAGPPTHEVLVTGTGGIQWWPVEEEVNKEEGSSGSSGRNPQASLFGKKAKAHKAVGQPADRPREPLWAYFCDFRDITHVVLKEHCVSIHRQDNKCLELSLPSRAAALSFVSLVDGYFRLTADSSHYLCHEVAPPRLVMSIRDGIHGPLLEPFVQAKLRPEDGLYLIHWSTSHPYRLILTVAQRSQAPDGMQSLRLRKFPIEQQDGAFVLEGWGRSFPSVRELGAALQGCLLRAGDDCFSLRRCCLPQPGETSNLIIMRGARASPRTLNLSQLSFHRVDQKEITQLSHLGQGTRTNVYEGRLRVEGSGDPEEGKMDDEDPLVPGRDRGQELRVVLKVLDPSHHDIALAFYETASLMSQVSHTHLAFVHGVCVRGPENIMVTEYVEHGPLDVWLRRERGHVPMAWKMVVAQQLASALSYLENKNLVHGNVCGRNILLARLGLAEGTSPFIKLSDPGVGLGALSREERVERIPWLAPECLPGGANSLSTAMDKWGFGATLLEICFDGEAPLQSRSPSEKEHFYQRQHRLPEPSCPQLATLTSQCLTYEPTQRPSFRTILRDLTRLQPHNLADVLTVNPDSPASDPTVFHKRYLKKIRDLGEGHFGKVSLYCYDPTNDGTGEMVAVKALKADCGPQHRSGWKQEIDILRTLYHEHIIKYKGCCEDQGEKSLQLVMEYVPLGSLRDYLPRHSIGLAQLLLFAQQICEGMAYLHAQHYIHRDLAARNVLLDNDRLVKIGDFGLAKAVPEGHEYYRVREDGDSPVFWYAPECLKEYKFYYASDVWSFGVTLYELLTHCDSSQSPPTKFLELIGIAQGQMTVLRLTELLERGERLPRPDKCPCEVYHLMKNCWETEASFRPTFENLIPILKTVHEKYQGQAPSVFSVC
Method: as §5

[3] = test system: human T lymphocyte leukemia cell line HuT78; assay: CCK-8 in vitro proliferation inhibition; assay type: cell-based; conditions: Homo sapiens, HuT78, 72 hours, read-out: Inhibitory activity (IC50) on cell proliferation, HUT78
Method: as §1, §2, §3, §4

[4] = test system: human T lymphoblastic lymphoma cell line Jurkat; assay: CCK-8 in vitro proliferation inhibition; assay type: cell-based; conditions: Homo sapiens, Jurkat, 72 hours, read-out: Inhibitory activity (IC50) on cell proliferation, JURKAT
Method: as §1, §2, §3, §4

Row | Compound | IC50 ([1]; Homo sapiens, K562, 72 hours) [nM] | IC50 ([2]; Homo sapiens, U-937, 72 hours) [nM] | IC50 (JAK1) [µM] | IC50 (JAK2; ATP concentration Km) [µM] | IC50 (JAK3; ATP concentration 1 mM) [µM] | IC50 (JAK3; ATP concentration Km) [µM] | IC50 (TYK2) [nM] | other results
1 | CN1CCN(C2CCN(c3ccc(Nc4ncc(Cl)c(O[C@H]5CO[C@H]6[C@@H]5OC[C@H]6O)n4)cc3Cl)CC2)CC1 [LS 3-96] |  |  |  | 8.16 |  |  |  | 
2 | CN1CCN(c2ccc(Nc3ncc(Cl)c(O[C@@H]4CO[C@H]5[C@@H]4OC[C@H]5O)n3)cc2)CC1 [LS 4-144] |  |  |  |  |  | 0.0848 |  | 
3 | CN1CCN(C2CCN(c3ccc(Nc4ncc(Cl)c(O[C@@H]5CO[C@H]6[C@@H]5OC[C@@H]6O)n4)cc3Cl)CC2)CC1 [LS 4-97] |  |  |  | 0.406 |  |  |  | 
4 | CN1CCN(C2CCN(c3ccc(Nc4ncc(Cl)c(O[C@@H]5CO[C@H]6[C@@H]5OC[C@H]6O)n4)c(Cl)c3)CC2)CC1 [LS 4-148] |  |  |  |  |  | 6.47 |  | 
5 | C=CC(=O)Nc1cc(Nc2ncc(Cl)c(O[C@@H]3CO[C@H]4[C@@H]3OCC4(F)F)n2)ccc1N(C)CCN(C)C [LS 6-105] |  |  | 4.22 |  |  |  | 272 | IC50 ([1]; 72 hours): 345 nM; IC50 ([2]; 72 hours): 33.8 nM; IC50 (JAK2): 0.589 µM; IC50 (JAK3): 0.00113 µM and 0.00132 µM; JAK3 kinase inhibitory activity and selectivity (in words) (JAK3): strong and selective JAK3 kinase inhibitory activity
6 | CN1CCN(C2CCN(c3ccc(Nc4ncc(Cl)c(O[C@@H]5CO[C@H]6[C@@H]5OC[C@H]6O)n4)cc3Cl)CC2)CC1 [LS 4-104] | 542 |  |  | 0.291 |  |  |  | IC50 [3]: 2420 nM; IC50 [4]: 2050 nM
7 | CN1CCN(c2ccc(Nc3ncc(Cl)c(O[C@@H]4CO[C@H]5[C@@H]4OC[C@H]5O)n3)cc2Cl)CC1 [LS 4-142] |  |  |  |  |  | 0.0495 |  | 
8 | C=CC(=O)Nc1cc(Nc2ncc(Cl)c(O[C@@H]3CO[C@H]4[C@@H]3OC[C@H]4F)n2)ccc1N(C)CCN(C)C [LS 6-88] |  |  | 87.1 |  |  |  | 930 | IC50 ([1]; 72 hours): 410 nM; IC50 ([2]; 72 hours): 50.3 nM; IC50 (JAK2): 1.72 µM; IC50 (JAK3): 0.00135 µM and 0.00153 µM; JAK3 kinase inhibitory activity and selectivity (in words) (JAK3): strong and selective JAK3 kinase inhibitory activity
9 | COc1cc(Nc2ncc(Cl)c(O[C@H]3CO[C@H]4[C@@H]3OC[C@H]4O)n2)ccc1N1CCN(C)CC1 [LS 4-106] |  |  |  |  |  | 0.638 |  | 
10 | C=CC(=O)Nc1cc(Nc2ncc(Cl)c(O[C@@H]3CO[C@@H]4CCO[C@@H]43)n2)ccc1N(C)CCN(C)C [LS 6-121] |  |  | 2.93 |  |  |  | 278 | IC50 ([2]; 72 hours): 31.3 nM; IC50 (JAK2): 1.06 µM; IC50 (JAK3): 0.0014 µM and 0.0016 µM; JAK3 kinase inhibitory activity and selectivity (in words) (JAK3): strong and selective JAK3 kinase inhibitory activity
11 | COc1cc(N2CCC(N3CCN(C)CC3)CC2)ccc1Nc1ncc(Cl)c(O[C@H]2CO[C@H]3[C@@H]2OC[C@H]3O)n1 [LS 4-100] |  |  |  |  |  |  |  | IC50 (JAK3; ATP concentration Km, in μM): > 10 µM
12 | Cc1cc(Nc2ncc(Cl)c(O[C@@H]3CO[C@H]4[C@@H]3OC[C@H]4O)n2)cnc1N1CCC(N2CCN(C)CC2)CC1 [LS 4-150] |  |  |  |  |  | 0.084 |  | 
13 | C=CC(=O)Nc1cc(Nc2ncc(Cl)c(O[C@@H]3CO[C@H]4[C@@H]3OC[C@@H]4F)n2)ccc1N1CCC(N2CCN(C)CC2)CC1 [LS 6-59] |  |  | 7.04 |  |  |  | 435 | IC50 ([1]; 72 hours): 281 nM; IC50 ([2]; 72 hours): 129 nM; IC50 (JAK2): 1.08 µM

More lines, main results first:

Row | IC50 ([1]; Homo sapiens, K562, 72 hours) [nM] | IC50 ([2]; Homo sapiens, U-937, 72 hours) [nM] | IC50 (JAK1) [µM] | IC50 (JAK2; ATP concentration Km) [µM] | IC50 (JAK3; ATP concentration 1 mM) [µM] | IC50 (JAK3; ATP concentration Km) [µM] | IC50 (TYK2) [nM] | Compound | other results
14 | 906 | 40.7 | 33.9 | 2.47 | 0.00155 | 0.00128 | 921 | C=CC(=O)Nc1cc(Nc2ncc(Cl)c(O[C@@H]3CO[C@H]4[C@@H]3OC[C@@H]4F)n2)ccc1N(C)CCN(C)C [LS 6-77] | JAK3 kinase inhibitory activity and selectivity (in words) (JAK3): strong and selective JAK3 kinase inhibitory activity
15 | 417 | 15.3 | 2.87 |  | 0.00225 | 0.00193 | 424 | C=CC(=O)Nc1cc(Nc2ncc(Cl)c(O[C@@H]3CO[C@H]4[C@@H]3OC[C@H]4O)n2)ccc1N(C)CCN(C)C [LS 5-88] | IC50 [3]: 81.1 nM; IC50 [4]: 111 nM
16 |  |  | 0.161 | 0.67 |  | 0.12 |  | N#CC1(c2ccc(Nc3ncc(Cl)c(O[C@@H]4CO[C@H]5[C@@H]4OC[C@H]5O)n3)cc2)CCCC1 [LS 5-58] | 
17 |  | 29.9 | 8.6 | 1.89 | 0.0019 | 0.0013 | 1660 | C=CC(=O)Nc1cc(Nc2ncc(Cl)c(O[C@@H]3CO[C@H]4[C@@H]3OC[C@H]4OCC)n2)ccc1N(C)CCN(C)C [LS 7-13] | JAK3 kinase inhibitory activity and selectivity (in words) (JAK3): strong and selective JAK3 kinase inhibitory activity
18 | 376 | 5380 |  |  |  | 0.133 |  | C=CC(=O)Nc1cc(Nc2ncc(Cl)c(O[C@@H]3CO[C@H]4[C@@H]3OC[C@H]4O)n2)c(OC)cc1N1CCC(N2CCN(C)CC2)CC1 [LS 5-3] | IC50 [3]: 8080 nM; IC50 [4]: 8670 nM; IC50 (JAK1; in μM): > 10 µM; IC50 (JAK2; ATP concentration Km, in μM): > 10 µM
19 | 1550 | 403 | 2.75 | 1.13 | 0.0261 | 0.00387 | 637 | C=CC(=O)Nc1cc(Nc2ncc(Cl)c(O[C@@H]3CO[C@H]4[C@@H]3OC[C@H]4OC)n2)ccc1N1CCOCC1 [LS 6-48] | 
20 | 620 | 171 | 15.6 | 1.71 | 0.00654 | 0.00426 | 805 | C=CC(=O)Nc1cc(Nc2ncc(Cl)c(O[C@@H]3CO[C@H]4[C@@H]3OC[C@H]4F)n2)ccc1N1CCN(CC)CC1 [LS 6-89] | 
21 |  |  | 0.685 | 0.417 |  | 0.00634 | 313 | C=CC(=O)Nc1cc(Nc2ncc(C)c(O[C@@H]3CO[C@H]4[C@@H]3OC[C@H]4O)n2)ccc1N1CCC(N2CCN(C)CC2)CC1 [LS 5-133, N-(5-((4-(((3R,3aR,6R, 6aR)-6-hydroxyhexahydrofurano[3,2-b]furan-3-yl)oxygen)-5-methylpyrimidin-2-yl)amino)-2-(4-(4-methylpiperazin-1-yl)piperidin-1-yl)phenyl) acrylamide] | 
22 | 525 | 146 | 12.6 | 1.67 | 0.00714 | 0.00402 | 912 | C=CC(=O)Nc1cc(Nc2ncc(Cl)c(O[C@@H]3CO[C@H]4[C@@H]3OC[C@@H]4F)n2)ccc1N1CCN(CC)CC1 [LS 6-78] | 
23 |  | 44 |  | 2.66 | 0.0023 | 0.0015 | 4420 | C=CC(=O)Nc1cc(Nc2ncc(Cl)c(O[C@@H]3CO[C@H]4[C@@H]3OC[C@H]4OC(C)C)n2)ccc1N(C)CCN(C)C [LS 7-18] | IC50 (JAK1; in μM): > 10 µM; JAK3 kinase inhibitory activity and selectivity (in words) (JAK3): strong and selective JAK3 kinase inhibitory activity
24 |  |  |  |  |  | 5.75 |  | CCN1CCN(Cc2ccc(Nc3ncc(Cl)c(O[C@@H]4CO[C@H]5[C@@H]4OC[C@H]5O)n3)nc2)CC1 [LS 5-54] | IC50 (JAK1; in μM): > 10 µM; IC50 (JAK2; ATP concentration Km, in μM): > 10 µM
25 | 371 | 79.4 | 4.69 | 1.1 | 0.00292 | 0.0017 | 1190 | C=CC(=O)Nc1cc(Nc2ncc(Cl)c(O[C@@H]3CO[C@H]4[C@@H]3OC[C@H]4OC)n2)ccc1N1CCN(C)[C@@H](C)C1 [LS 6-49] | JAK3 kinase inhibitory activity and selectivity (in words) (JAK3): strong and selective JAK3 kinase inhibitory activity
26 |  |  | 0.354 | 0.949 |  | 0.141 |  | CN1CCN(C2CCN(c3c(Cl)cc(Nc4ncc(Cl)c(O[C@@H]5CO[C@H]6[C@@H]5OC[C@H]6O)n4)cc3Cl)CC2)CC1 [LS 5-16] | 
